Assay results reported in US20230313305A1, “METHODS AND USES OF INFLAMMATORY BOWEL DISEASE BIOMARKERS” (Washington University, priority 2017, published 2023).

Tests used:
[1] = system: primary intestinal epithelial cells; test: IL-17A added to primary cultured intestinal epithelial cells (microarray, qPCR); assay type: cell-based, mouse; settings: 20 ng/ml IL-17A
Description: Despite the important role of IL-17 in autoimmunity and inflammatory bowel disease (IBD) its function in the mucosa in disease is still unclear. In IBD, IL-17 is produced in part by mucosal pro-inflammatory Th17 cells. […] To investigate this possibility, we treated primary cultured intestinal epithelial cells with IL-17 and conducted transcriptomic analysis. […] This process was inhibited by PAI-1. […] This study identifies a new pathway in UC where dysregulated PAI-1 leads to exacerbated inflammation and disease activity by blocking an IL-17-tPA-TGF-β axis.
From colon epithelial lines n=4; Stem cells; Stem cells (2 days); DM; Colonocytes; With and without 20 ng/ml IL-17A.
We sought a marker of intestinal inflammation in IBD that is downstream of multiple inflammatory pathways. We first performed RNA microarray analysis on primary mouse intestinal epithelial cells treated these cells with IL-17 (a known important inflammatory cytokine in IBD). We cross-referenced a list of 23 molecules with enhanced mRNA production in these cells grown multiple states to lists of molecules with enhanced expression in IBD colon biopsies. We identified that the Plat/Serpine1 pathway was enriched. […]

[2] = system: colon spheroids; test: TGFβ on colon spheroids, serpine1/PAI-1 expression; assay type: cell-based; settings: colon spheroids (FIG. 25)
Description: FIG. 25. TGFβ drives serpine1/PAI-1 expression in the colon spheroids (negative feedback loop)

| Substance | production of tissue plasminogen activator (tPA) by epithelial cells [1] | serpine1/PAI-1 expression [2] |
| --- | --- | --- |
| IL-17: inflammatory cytokine added to primary intestinal epithelial cells | induced | – |
| TGFβ | – | drives |
